From patent US7745646B2, “Bicyclic heteroaryl inhibitors of PDE4” (Kalypsys, Inc., priority 2006, dated 2010) come the findings set out here.

Some results are limits rather than exact numbers.

In the first assay the target is T1, PDE4B (Homo sapiens, UniProt Q07343).
T1 construct: hex-histidine (His6) (N); made in house
T1 sequence (Q07343 330-659 limits assumed, species assumed): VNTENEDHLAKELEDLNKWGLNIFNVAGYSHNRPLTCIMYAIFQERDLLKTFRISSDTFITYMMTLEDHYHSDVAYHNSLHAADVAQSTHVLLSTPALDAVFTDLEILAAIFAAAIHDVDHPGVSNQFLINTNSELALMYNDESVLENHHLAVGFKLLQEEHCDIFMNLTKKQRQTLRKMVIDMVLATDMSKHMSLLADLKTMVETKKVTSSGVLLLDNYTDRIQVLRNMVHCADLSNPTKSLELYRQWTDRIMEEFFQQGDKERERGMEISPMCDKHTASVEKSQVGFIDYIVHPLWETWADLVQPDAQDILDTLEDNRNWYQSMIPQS
The assay is described as follows: Novel coupled PDE/AK bioluminescent assay, PDE4B inhibition. It is filed as biochemical. The note with it: PDE4B catalytic domain.
Source text: We developed a novel coupled PDE/AK bioluminescent high-throughput assay to measure the activity of phosphodiesterases. In the PDE/AK assay, the AMP produced from the hydrolysis of cAMP by phosphodiesterase is converted to adenosine diphosphate (ADP) by the phosphotransferase activity of adenylate kinase (also known as ADK or myokinase). Adenylate kinase will catalyze the conversion of 1 mole of AMP and 1 mole of ATP into 2 moles of ADP. Thus the conversion of AMP to ADP will result in the subsequent loss of ATP. The decrease in ATP concentration can be monitored as light output using luciferase in a reaction that requires ATP to produce light. The PDE/AK assay uses luciferase, which catalyzes the production of light from ATP present in the reaction mix. The amount of emitted light is inversely proportional to the level of AMP present in the reaction. Test compounds are incubated with the phosphodiesterases and phosphodiesterase inhibitors will decrease the rate of cAMP hydrolysis and decrease the subsequent production of AMP.
A novel coupled PDE/AK assay was utilized to measure the inhibitory activity of compounds on PDE isoforms. The catalytic domain of PDE4B was fused to an amino-terminus hex-histidine affinity tag and purified. PDE4B enzyme was incubated with compounds for 10 minutes. Cyclic AMP substrate, ATP and adenylate kinase were then added to the PDE enzyme mix and incubated for 45 minutes at room temperature. A commercial ATP detection assay, Perkin Elmer's easyLite ATP detection reagent, was then added to measure the relative amount of ATP present in the reaction. After 10 minute incubation, the luminescent signal was quantitated with either the Perkin Elmer Viewlux or Molecular Devices Acquest or Analyst.
Broadly, the IC50 is the concentration that inhibits the measured activity by half. In turn, `COc1ccc2c(Nc3c(Cl)cncc3Cl)cc(=O)oc2c1OCC1CC1` [Example 5, 8-(Cyclopropylmethoxy)-4-(3,5-dichloropyridin-4-ylamino)-7-methoxy-2H-chromen-2-one] gave an IC50 below 1 µM. The same measure, in the same setting: for `COc1ccc2c(Nc3c(Cl)cncc3Cl)cc(=O)oc2c1OC1CCCC1` [Example 3, 8-(Cyclopentyloxy)-4-(3,5-dichloropyridin-4-ylamino)-7-methoxy-2H-chromen-2-one] the value was below 1 µM; for `CCOC(=O)CCCCCOc1c(OC)ccc2c(Nc3c(Cl)cncc3Cl)cc(=O)oc12` [Example 38, Ethyl 6-(4-(3,5-dichloropyridin-4-ylamino)-7-methoxy-2-oxo-2H-chromen-8-yloxy)hexanoate], below 1 µM; for `COc1ccc2c(Nc3c(Cl)cncc3Cl)c(C)c(=O)oc2c1OC1CCCC1` [Example 13, 8-(Cyclopentyloxy)-4-(3,5-dichloropyridin-4-ylamino)-7-methoxy-3-methyl-2H-chromen-2-one], below 1 µM. The same measure, in the same setting: for `COc1ccc2c(N[C@H]3CC[C@@H](C(=O)O)CC3)cc(=O)oc2c1OC1CCCC1` [Example 39, cis-4-(8-(Cyclopentyloxy)-7-methoxy-2-oxo-2H-chromen-4-ylamino)cyclohexanecarboxylic acid] the value was above 1 µM. Same read-out and setting: for `COc1ccc2c(Nc3c(Cl)cncc3Cl)cc(=O)oc2c1OCCCN(C)C` [Example 32, 4-(3,5-Dichloropyridin-4-ylamino)-8-(3-(dimethylamino)propoxy)-7-methoxy-2H-chromen-2-one] the value was below 1 µM; for `COc1ccc2c(Nc3c(Cl)cncc3Cl)c(O)c(=O)oc2c1OC1CCCC1` [Example 4, 8-(Cyclopentyloxy)-4-(3,5-dichloropyridin-4-ylamino)-3-hydroxy-7-methoxy-2H-chromen-2-one], above 1 µM; for `COc1ccc2c(Nc3c(Cl)cncc3Cl)cc(=O)oc2c1OCCCCCN1CCOCC1` [Example 53, 4-(3,5-Dichloropyridin-4-ylamino)-7-methoxy-8-(5-morpholinopentyloxy)-2H-chromen-2-one], below 1 µM.

Take `C=C(OCC)c1cncc(Cl)c1Nc1cc(=O)oc2c(OC3CCCC3)c(OC)ccc12` [Example 15, 4-(3-Chloro-5-(1-ethoxyvinyl)pyridin-4-ylamino)-8-(cyclopentyloxy)-7-methoxy-2H-chromen-2-one]: the IC50 is below 1 µM.

`COc1ccc2c(Nc3c(Cl)cncc3Cl)cc(=O)oc2c1OCC(=O)O` [Example 49, 2-(4-(3,5-Dichloropyridin-4-ylamino)-7-methoxy-2-oxo-2H-chromen-8-yloxy)acetic acid] displayed a concentration for half-maximal inhibition (IC50) above 1 µM. On the same count and under the same terms, the result for `COc1ccc2c(Nc3ccccc3Cl)cc(=O)oc2c1OC1CCCC1` [Example 19, 4-(2-Chlorophenylamino)-8-(cyclopentyloxy)-7-methoxy-2H-chromen-2-one] reads below 1 µM; that for `COc1ccc2c(Nc3c(Cl)cncc3Cl)cc(=O)oc2c1OCCCO` [Example 85, 4-(3,5-Dichloropyridin-4-ylamino)-8-(3-hydroxypropoxy)-7-methoxy-2H-chromen-2-one], below 1 µM; that for `COc1ccc2c(Nc3ccccc3Cl)cc(=O)oc2c1OCC1CC1` [Example 24, 4-(2-Chlorophenylamino)-8-(cyclopropylmethoxy)-7-methoxy-2H-chromen-2-one], below 1 µM. Still for that read-out and setting: the result for `CCCCCN(C)CCCCCOc1c(OC)ccc2c(Nc3c(Cl)cncc3Cl)cc(=O)oc12` [Example 91, 4-(3,5-Dichloropyridin-4-ylamino)-7-methoxy-8-(5-(methyl(pentyl)amino)pentyloxy)-2H-chromen-2-one] reads below 1 µM; that for `COc1ccc2c(Nc3c(Cl)cncc3Cl)cc(=O)oc2c1OCC1CCCC1` [Example 40, 8-(Cyclopentylmethoxy)-4-(3,5-dichloropyridin-4-ylamino)-7-methoxy-2H-chromen-2-one], below 1 µM; that for `COc1ccc2c(Nc3c(Cl)cncc3Cl)cc(=O)oc2c1OCC(C)C` [Example 23, 4-(3,5-Dichloropyridin-4-ylamino)-8-isobutoxy-7-methoxy-2H-chromen-2-one], below 1 µM. Still for that read-out and setting: for `COc1ccc2c(Nc3c(Cl)ccc(C)c3Cl)cc(=O)oc2c1OC1CCCC1` [Example 16, 8-(Cyclopentyloxy)-4-(2,6-dichloro-3-methylphenylamino)-7-methoxy-2H-chromen-2-one] the value was above 1 µM; for `COc1ccc2c(Nc3c(Cl)cncc3Cl)cc(=O)oc2c1OC(C)C` [Example 21, 4-(3,5-Dichloropyridin-4-ylamino)-8-isopropoxy-7-methoxy-2H-chromen-2-one], below 1 µM; for `COc1ccc2c(Nc3c(Cl)cncc3Cl)cc(=O)oc2c1OCCCCCCCCN(C)C` [Example 81, 4-(3,5-Dichloropyridin-4-ylamino)-8-(8-(dimethylamino)octyloxy)-7-methoxy-2H-chromen-2-one], below 1 µM. The molecule `COc1ccc2c(Nc3c(Cl)cncc3Cl)c(CCO)c(=O)oc2c1OC1CCCC1` [Example 82, 8-(Cyclopentyloxy)-4-(3,5-dichloropyridin-4-ylamino)-3-(2-hydroxyethyl)-7-methoxy-2H-chromen-2-one] had an IC50 above 1 µM. `COc1ccc2c(Nc3c(Cl)cncc3Cl)cc(=O)oc2c1OCCCCCn1cncn1` [Example 103, 8-(5-(1H-1,2,4-Triazol-1-yl)pentyloxy)-4-(3,5-dichloropyridin-4-ylamino)-7-methoxy-2H-chromen-2-one] gave an IC50 below 1 µM. Same read-out and setting: the result for `COc1ccc2c(Nc3c(Cl)cncc3Cl)cc(=O)oc2c1OCCCCCC(=O)NO` [Example 84, 6-(4-(3,5-Dichloropyridin-4-ylamino)-7-methoxy-2-oxo-2H-chromen-8-yloxy)-N-hydroxyhexanamide] reads below 1 µM; that for `CNCCCCCOc1c(OC)ccc2c(Nc3c(Cl)cncc3Cl)cc(=O)oc12` [Example 100, 4-(3,5-Dichloropyridin-4-ylamino)-7-methoxy-8-(5-(methylamino)pentyloxy)-2H-chromen-2-one], below 1 µM; that for `COc1ccc2c(Nc3c(Cl)cncc3Cl)cc(=O)oc2c1OCCCCCOc1c(OC)ccc2c(Nc3c(Cl)cncc3Cl)cc(=O)oc12` [Example 74, 8,8′-(Pentane-1,5-diylbis(oxy))bis(4-(3,5-dichloropyridin-4-ylamino)-7-methoxy-2H-chromen-2-one)], below 1 µM.

In turn, `COc1ccc2c(Nc3c(Cl)cncc3Cl)cc(=O)oc2c1OCCCCO[C@@H]1O[C@H](CO)[C@@H](O)[C@H](O)[C@H]1O` [Example 87, 4-(3,5-Dichloropyridin-4-ylamino)-7-methoxy-8-(4-((2R,3R,4S,5S,6R)-3,4,5-trihydroxy-6-(hydroxymethyl)tetrahydro-2H-pyran-2-yloxy)butoxy)-2H-chromen-2-one] gave an IC50 below 1 µM. In turn, `COc1ccc2c(Nc3c(Cl)cncc3Cl)cc(=O)oc2c1OCCOCCN(C)C` [Example 69, 4-(3,5-Dichloropyridin-4-ylamino)-8-(2-(2-(dimethylamino)ethoxy)ethoxy)-7-methoxy-2H-chromen-2-one] registered an IC50 below 1 µM. `COc1ccc2c(Nc3c(Cl)cncc3Cl)cc(=O)oc2c1OCCCCCCN(C)C` [Example 79, 4-(3,5-Dichloropyridin-4-ylamino)-8-(6-(dimethylamino)hexyloxy)-7-methoxy-2H-chromen-2-one] displayed an IC50 below 1 µM. `CCOC(=O)CCCCOc1c(OC)ccc2c(Nc3c(Cl)cncc3Cl)cc(=O)oc12` [Example 37, Ethyl 5-(4-(3,5-dichloropyridin-4-ylamino)-7-methoxy-2-oxo-2H-chromen-8-yloxy)pentanoate] had an IC50 below 1 µM. On the same count and under the same terms, the result for `CNP(=O)(NC)OCCCCCOc1c(OC)ccc2c(Nc3c(Cl)cncc3Cl)cc(=O)oc12` [Example 105] reads below 1 µM.

For the molecule `COc1ccc2c(Nc3c(Cl)cncc3Cl)cc(=O)oc2c1OCCCCN1CCOCC1` [Example 71, 4-(3,5-Dichloropyridin-4-ylamino)-7-methoxy-8-(4-morpholinobutoxy)-2H-chromen-2-one], the concentration for half-maximal inhibition (IC50) was below 1 µM. The same measure, in the same setting: for `COc1ccc2c(Nc3c(Cl)cncc3Cl)cc(=O)oc2c1OCCCCCn1ccnn1` [Example 98, 8-(5-(1H-1,2,3-Triazol-1-yl)pentyloxy)-4-(3,5-dichloropyridin-4-ylamino)-7-methoxy-2H-chromen-2-one] the value was below 1 µM.

In another assay the test system is Lacrimal Gland Inflammation-Induced Dry Eye in Rabbits. The assay can be described thus: Lacrimal Gland Inflammation-Induced Dry Eye in Rabbits. It is filed as in vivo. The note with it: 1 percent, topical ocular BID, rabbit dry eye. From the text:
A more detailed description of the assay used herein may be found in Naglehout, T J et al. 2005, “Preservation of Tear Film Integrity and Inhibition of Corneal Injury by Dexamethasone in a Rabbit Model of Lacrimal Gland Inflammation-Induced Dry Eye,” J. Ocular Pharm. Ther., 21:2. 139-148, the disclosure of which is hereby incorporated by reference as if written herein in its entirety.
Rabbits (n=4/group) were randomized into treatment groups and dosed topically BID with maxidex vehicle or test drug beginning one day prior to initiation of dry eye. Each rabbit received bilateral lacrimal gland injections of saline or ConA (300 μg/30 μl) and topical ocular dosing was continued BID throughout the study.
Desiccation was initiated 1-2 hours following lacrimal gland injection by placing conscious rabbits in the environmental chamber (10-15% humidity/72° F.). […] Absorbance of the extracted dye was determined at 660 nm.
TBUT was quantified in a separate group of treated animals. TBUT was determined by instilling 5 μL sodium fluorescein into the cul de sac and manually blinking the lids to distribute the fluorescein within the tear film. Under slit lamp observation, the eye was held open and the time whereby one or more black spots or streaks appeared in the precorneal tear film was recorded. […]
Regarding `COc1ccc2c(Nc3c(Cl)cncc3Cl)cc(=O)oc2c1OCC1CC1` [Example 5, 8-(Cyclopropylmethoxy)-4-(3,5-dichloropyridin-4-ylamino)-7-methoxy-2H-chromen-2-one], the “Activity at Percent Concentration Tested” value is recorded as “Inactive”. On the same count and under the same terms, the result for `COc1ccc2c(Nc3c(Cl)cncc3Cl)cc(=O)oc2c1OC1CCCC1` [Example 3, 8-(Cyclopentyloxy)-4-(3,5-dichloropyridin-4-ylamino)-7-methoxy-2H-chromen-2-one] reads “Inactive”.
